Experimental data reported in PubChem BioAssay (NCI).
“And” between values parts separate entries of the source, which are not always exact repeats. Equal values may be shown once.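 How tested: cells in 96-well plates exposed to compound for 48 hours at five concentrations. Here, GI50 denotes the concentration required for 50% inhibition of growth. At the TGI there is no net growth.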

Key:
Assay in all cases: NCI anticancer screen, dose series, 48 h
UACC-257 melanoma = tested on: UACC-257 melanoma
SK-OV-3 ovarian = tested on: SK-OV-3 ovarian
CCRF-CEM leukemia = tested on: CCRF-CEM leukemia
MDA-MB-435 = tested on: MDA-MB-435
HT29 colon = tested on: HT29 colon
T-47D breast = tested on: T-47D breast
SNB-75 CNS = tested on: SNB-75 CNS
M14 melanoma = tested on: M14 melanoma
KM12 colon = tested on: KM12 colon

Compound | TGI (UACC-257 melanoma) | TGI (SK-OV-3 ovarian) | TGI (CCRF-CEM leukemia) | TGI (MDA-MB-435) | TGI (HT29 colon) | TGI (T-47D breast) | TGI (SNB-75 CNS) | TGI (M14 melanoma) | TGI (KM12 colon) | GI50 (UACC-257 melanoma) | GI50 (SK-OV-3 ovarian) | GI50 (CCRF-CEM leukemia) | GI50 (MDA-MB-435) | GI50 (HT29 colon) | GI50 (T-47D breast) | GI50 (SNB-75 CNS) | GI50 (M14 melanoma) | GI50 (KM12 colon)
O=C[C@@H](CO)O[C@H](C=O)c1c[nH]c(=O)[nH]c1=O | 657 µM | 473 µM | 973 µM | 155 µM | 595 µM | 606 µM | 1310 µM | 527 µM | 362 µM | – | – | – | – | – | – | – | – | –
NCCNc1c2c(c(NCCN)c3c(CO)c[nH]c13)C(=O)c1ccccc1C2=O | 46 µM | > 100 µM | > 100 µM | > 100 µM | > 100 µM | > 100 µM | > 100 µM | > 100 µM | > 100 µM | 16.8 µM | 5.96 µM | 4.28 µM | 28.7 µM | 10.6 µM | 7.59 µM | 24.3 µM | 25.3 µM | 17.3 µM
Clc1ccc(CSC(Cn2ccnc2)c2ccc(Cl)cc2Cl)cc1 (stereo not given) | 2.86 µM | 3.91 µM | 5.46 µM | 3.33 µM | 2.81 µM | 2.76 µM | 8.04 µM | 3.12 µM | 3.3 µM | 1.43 µM | 1.7 µM | 1.94 µM | 1.71 µM | 1.44 µM | 0.999 µM | 2.13 µM | 1.69 µM | 1.66 µM
CN(C)CCOc1ccc(-c2nc(-c3ccc4c(c3)CC/C4=N\O)c(-c3ccncc3)[nH]2)cc1 | 1.07 µM and 2.74 µM | 7.52 µM and 22.1 µM | 11.3 µM and 10.2 µM | 5.17 µM and 41.2 µM | 4.53 µM and 3.49 µM | 9.55 µM and 30.6 µM | 5.48 µM and 11 µM | 2.14 µM and 3.69 µM | 8.07 µM and 6.18 µM | 0.0456 µM and 0.0489 µM | 3.67 µM and 9.66 µM | 4.32 µM and 2.43 µM | – | 0.127 µM and 0.29 µM | 4.8 µM and 7.63 µM | 0.403 µM and 1.11 µM | 0.0258 µM and 0.054 µM | 4.39 µM and 2.65 µM
Cc1cc2nc(C(C)C(=O)c3ccc(Cl)cc3)c(=O)[nH]c2cc1C (stereo not given) | > 100 µM | > 100 µM | > 100 µM | 49.6 µM | 66.4 µM | > 100 µM | > 100 µM | > 100 µM | > 100 µM | – | – | – | – | – | – | – | – | –
CC[C@]12CCCN3CCc4c(n(c5ccccc45)C(=O)C1)[C@@H]32 | > 100 µM | 87.7 µM | 33.1 µM | 4.41 µM | > 52.7 µM | > 100 µM | 78.4 µM | > 65.5 µM | > 100 µM | – | – | – | – | – | – | – | – | –
CCOC(=O)c1ccc2[nH]c(-c3ccc(S(=O)(=O)F)cc3)cc(=O)c2c1 | > 100 µM | > 100 µM | > 100 µM | > 100 µM | > 100 µM | > 100 µM | > 100 µM | > 100 µM | > 100 µM | – | – | – | – | – | – | – | – | –
COc1ccc(-c2cc(-c3cc(Cl)ccc3Cl)nc3n[nH]c(N)c23)cc1 | > 100 µM | > 100 µM | 90.7 µM | 6.94 µM | > 100 µM | > 100 µM | > 100 µM | > 100 µM | 83.6 µM | 70.4 µM | 34.5 µM | 31 µM | 2.65 µM | 6.32 µM | 30.8 µM | 20.9 µM | 29.5 µM | 8.26 µM
O=C(O)CCNc1ccccc1C(=O)O | > 100 µM | > 100 µM | > 100 µM | > 100 µM | > 100 µM | > 100 µM | > 100 µM | > 100 µM | > 100 µM | – | – | – | – | – | – | – | – | –
CC(=O)N[C@@H](Cc1ccc(OP(=O)(O)O)cc1)C(=O)N[C@H]1CCC(=O)N2CCC[C@@H](C(=O)NCc3ccc(Cl)cc3)N2C1=O | > 25 µM | > 25 µM | > 25 µM | > 25 µM | > 25 µM | > 25 µM | > 25 µM | > 25 µM | > 25 µM | > 25 µM | > 25 µM | > 25 µM | > 25 µM | > 25 µM | > 25 µM | > 25 µM | > 25 µM | > 25 µM
COc1ccc(OC)c(/C=N/NC(=O)Cc2csc3nc(-c4ccc(Br)cc4)cn23)c1 | 97.5 µM | > 100 µM | > 100 µM | 16.2 µM | > 100 µM | > 100 µM | 65.4 µM | 72.1 µM | > 100 µM | 23.9 µM | 57.7 µM | 9.59 µM | 3.96 µM | 16.4 µM | 41.2 µM | 23.9 µM | 15.1 µM | 8.84 µM
FC(F)(F)c1nc(N2CCCC2)ncc1-c1nnnn1-c1ccc(Cl)cc1 | 69.5 µM | > 100 µM | 45.4 µM | 40.8 µM | 65.9 µM | > 100 µM | 65.3 µM | 55.3 µM | 48 µM | 7.11 µM | 31.8 µM | 6.71 µM | 15.2 µM | 20.4 µM | 5.29 µM | 12 µM | 20.2 µM | 15 µM
CN(Cc1cnc2nc(N)nc(N)c2n1)c1ccc(C(=O)NC(CCC(=O)O)C(=O)O)cc1C(F)(F)F (stereo not given) | > 100 µM | > 100 µM | 0.486 µM | > 100 µM | > 100 µM | > 100 µM | > 100 µM | > 100 µM | > 100 µM | – | – | – | – | – | – | – | – | –
CC12CCC3C(CCC4Cc5[nH]c6ccccc6c5CC43C)C1CCC2O (stereo not given) | > 100 µM | > 100 µM | 6.44 µM | 0.717 µM | > 27.1 µM | > 100 µM | > 100 µM | > 19.8 µM | 8.61 µM | > 100 µM | 2.81 µM | 1 µM | 0.241 µM | 1.58 µM | 2.3 µM | 0.574 µM | 0.753 µM | 2.8 µM
COc1ccccc1NC(=O)c1sc2nc3c(cc2c1N)C(=O)CCC3 | – | > 100 µM | > 100 µM | 1.58 µM | – | > 100 µM | 9.42 µM | > 100 µM | – | – | 3.59 µM | > 100 µM | 0.295 µM | – | > 100 µM | 2.36 µM | 2.86 µM | –
OC(c1cccc(-n2ccc(C(F)(F)F)n2)c1)c1cnccc1NC1CCCCCC1 (stereo not given) | 3.76 µM | – | 6.04 µM | 3.14 µM | 4.33 µM | 4.23 µM | 2.67 µM | 3.29 µM | 3.54 µM | 1.86 µM | – | 2.35 µM | 1.73 µM | 1.8 µM | 1.77 µM | 1.36 µM | 1.78 µM | 1.87 µM
